Data reported in patent US20100105758A1 (Centre de Recherche Public de la Sante, priority 2006, published 2010).
“Also recorded” adds a separate entry of the source.

How the values were obtained:
[1] = system: THP-1-derived macrophages; assay: MMP-9 secretion by THP-1-derived macrophages, gelatin zymography and densitometry; assay type: cell-based; settings: PMA 48 hours; for MMP-9 secretion (zymography), modulators of Ado metabolism: added alone or in combination, Ado 10 μM, EHNA 10 μM, DIP 10 μM
Description: Cells were incubated for 15 min with increasing concentrations of Ado and 10 μM EHNA before differentiation with 150 nM PMA for 48 hours. […] Concentrations of 10 μM Ado and 10 μM EHNA were used in further experiments. […] FIG. 2. […] THP-1 cells were treated for 15 min with Ado and 10 μM EHNA or vehicle before differentiation to macrophages with 150 nM PMA for 48 hours. EHNA, which inhibits Ado deaminase, and DIP, which inhibits Ado transport, were used to enhance endogenous Ado concentration. Gelatinase activity was measured in cell-free conditioned medium by zymography and densitometry. A. A representative zymogram is shown. […] C. Time-course experiment. […] FIG. 3. […] A. THP-1 cells were treated for 15 min with 10 μM Ado and 10 μM EHNA or vehicle before differentiation to macrophages with 150 nM PMA for 48 hours. […] B. THP-1 cells were treated for 15 min with 0.1, 1 or 10 μM of Ado receptors agonists (CPA, A1-specific; CGS21680, A2a-specific; IB-MECA, A3-specific). […] Gelatinase activity was assessed in conditioned medium. […] C. […] Cells were transfected with siRNA specific for A2a, A2b or A3 Ado receptors, incubated for 48 hours to achieve down-regulation of Ado receptors expression, treated for 15 min with 10 μM Ado and 10 μM EHNA or vehicle before differentiation to macrophages with 150 nM PMA for 48 hours. Conditioned medium was analysed by gelatin zymography. […] Cell culture. All cell culture reagents were from Lonza (Verviers, Belgium) unless specified otherwise. Peripheral venous blood was obtained from healthy volunteers. Peripheral blood mononuclear cells were obtained by Ficoll gradient. Monocytes were purified by negative selection using the Monocyte Isolation Kit II (Myltenyi Biotec GmbH, Bergisch Gladbach, Germany). […] Macrophages were incubated for 15 minutes with Ado/EHNA (10 μmol/L) or vehicle, then LPS (100 ng/ml) or vehicle was added and cells were incubated for another 24 hours before harvesting. Cells from the monocyte-like line THP-1 (ATCC, LGC Promochem, Teddington, UK) were propagated at 37° C.-5% CO2 in RPMI 1640 medium supplemented with L-glutamine (2 mM), Penicillin (100 Units/ml), Streptomycin (100 μg/ml), non-essential amino acids solution (1 μM), sodium pyruvate (1 mM), and 10% heat-inactivated fetal calf serum (FCS) (Eurobio, Les Ulys, France). For experiments, FCS in culture medium was reduced to 1%. Cells were treated for 15 min with EHNA vehicle (DMSO), Ado (0.01 to 100 μM), Ado receptors agonists (0.1 to 10 μM), EHNA (10 μM) or Dipyridamole (DIP) (10 μM). Cells were then differentiated into macrophages with 150 nM phorbol myristate actetate (PMA) for 24 hours. Macrophages were subsequently treated with LPS (1 to 1000 ng/ml), fMLP (10^−7 M) or H2O2 (10 mM) for another 24 hours. Analysis of gelatinase activity. Gelatin zymography was performed on culture supernatants to assess secreted MMP-9 activity. Briefly, conditioned medium was loaded on SDS-polyacrylamide gels containing 0.2% gelatin under non reducing conditions. After electrophoresis, gels were washed and incubated overnight at 37° C. in assay buffer (50 mM Tris-HCl, pH 7.6, 200 mM NaCl, 5 mM CaCl2, and 0.02% Brij35). Subsequently, gels were stained in 0.1% Coomassie Blue and destained in 25% ethanol/8% acetic acid. Densitometry was achieved using the Gel Logic 2200 Digital Imaging system and Aida Software (Kodak, Zavemtem, Belgium).

THP-1 monocytes = assay: Migration assay, modified Boyden chamber coated with gelatin B, MCP-1 gradient; assay type: cell-based; settings: pre-incubation with TIMP-1 10 ng/mL or GM6001 10 nM or 1 μM
Description: Infiltration of monocytes/macrophages into the myocardium is a hallmark of ventricular remodelling post MI. Cell migration is facilitated by degradation of the ECM by MMP-9. We therefore tested whether the increase in MMP-9 secretion by Ado could improve monocytes migration along a gradient of MCP-1. For this purpose, the top of a modified Boyden chamber was coated with gelatin B and MCP-1 was added in the bottom compartment. Monocytes were treated with Ado before seeding on the microporous membrane of the chamber. […] This effect was inhibited by the synthetic MMP inhibitor GM6001 and the endogenous MMP-9 inhibitor TIMP-1 (FIG. 4).
FIG. 4. Ado increases monocytes migratory capacity. THP-1 monocytes were treated for 24 hours with 10 μM Ado and 10 μM EHNA or vehicle before seeding on the microporous membrane of a modified Boyden chamber pre-coated with gelatin B. 10 ng/mL MCP-1 was added in the bottom compartment. When specified, cells were pre-incubated with TIMP-1 (10 ng/mL) or GM6001 (10 nM or 1 μM) before seeding on the membrane. Cell migration was quantified by fluorescence after 24 hours. […] Results are mean±SD (n=5). * P<0.05 vs no Ado.
Migration assay. Migratory capacity of THP-1 monocytes was studied using a Transwell® system with polycarbonate microporous membranes (5 μm pore size, 24-well chamber, Costar, Lowell, USA). Membranes were coated with a 2% gelatin B solution and allowed to dry at room temperature for 2 hours. MCP-1 (10 ng/mL) was added in the bottom compartment. THP-1 monocytes were cultured in serum- and antibiotic-free medium with or without 10 μM Ado and 10 μM EHNA for 24 hours. Cells were pre-incubated for 30 min with GM 6001 (10 nM or 1 μM) or TIMP-1 (10 ng/mL) before seeding into the upper compartment at a concentration of 7.5×10^4 cells per well. After 24 hours, cells that migrated through the membrane were detached, lysed and stained by the CyQuant GR® dye (Invitrogen) for 15 min. Fluorescence was read with a POLARstar Optima (BMG LABTECH, Champigny-sur-Marne, France) microplate reader (Xex=492 nm, kem=520 nm).

MMPs = settings: given 24-72 hours post MI; cited from earlier work

| Compound | MMP-9 secretion (zymography), modulators of Ado metabolism [1] | inhibition of Ado-enhanced cell migration (THP-1 monocytes) | further results |
| --- | --- | --- | --- |
| CCCCCC[C@@H]([C@@H](C)O)n1cnc2c(N)ncnc21 (racemic) [EHNA] | triggered MMP-9 secretion | – | – |
| OCCN(CCO)c1nc(N2CCCCC2)c2nc(N(CCO)CCO)nc(N3CCCCC3)c2n1 [DIP, Dipyridamole] | triggered MMP-9 secretion | – | – |
| CNC(=O)[C@H](Cc1c[nH]c2ccccc12)NC(=O)[C@@H](CC(=O)NO)CC(C)C [GM6001, (R)-N-4-Hydroxy-N1-[(S)-2-(1H-indol-3-yl)-1-methylcarbamoly-ethyl]-2-isobutyl-succinamide] | – | partly prevented; also recorded: inhibited | – |
| CNC(=O)[C@H]1O[C@@H](n2cnc3c(NCc4cccc(I)c4)ncnc32)[C@H](O)[C@@H]1O [IB-MECA, 1-deoxy-1-[6-[[(3-iodophenyl)methyl]amino]-9H-purine-9-yl]-N-methyl-Dribofuranuronamide] | – | – | MMP-9 secretion with Ado receptor agonists ([1]; 0.1, 1 or 10 μM agonist for 15 min, EHNA omitted): increase MMP-9 secretion to the same extent as Ado |
| COc1ccc(C(=O)Nc2ccc(S(=O)(=O)NC(CC#CCN3CCOCC3)C(=O)O)cc2)cc1 (stereo not shown) [PG-116800] | – | – | outcome after MI (MMPs): did not improve outcome; prevention of LV remodelling after MI (MMPs): failed to prevent LV remodelling |
| TIMP-1: recombinant human protein TIMP-1 (R&D Systems), endogenous MMP-9 inhibitor | – | partly prevented; also recorded: inhibited | – |
